Test results as given in patent publication US20190388387A1, “COMPOSITION FOR INHIBITING MYOFIBROSIS” (SUNTORY HOLDINGS LIMITED, priority 2017, published 2019).

What was measured:
[1] = system: rat skeletal muscle-derived muscle satellite cells; test: Morphological changes of muscle satellite cells to myofibroblasts under TGF β fibrosis induction (Masson's Trichrome staining); format: cell-based; settings: TGF β 1 ng/mL
Method: Gastrocnemius, soleus, plantaris muscle, tibialis anterior, extensor digitorum longus, and quadriceps were extracted from male Fischer 344 rats of 9 to 15 weeks old under anesthesia, and minced in phosphate buffered saline (PBS) (Life Technologies Corporation) on ice. The minced muscle tissue was enzymatically degraded by Protease (Sigma-Aldrich) at 37° C., and then centrifuged repeatedly, whereby the muscle satellite cells were isolated. The muscle satellite cells were suspended in Dulbecco's Modified Eagle Medium (DMEM) containing 10% fetal equine serum, and cultured for 24 hours. After culturing, centrifugation was performed again, and the deposited muscle satellite cells were seeded onto an 8-well slide glass (Thermo Fisher Scientific) to a density of 5×10^4 to 7×10^4 cells/mL in F-10 medium (Gibco) containing 20% bovine serum. After seeding, the muscle satellite cells were cultured for 72 hours or 120 hours. The muscle satellite cells for tissue staining were cultured for 72 hours, and muscle satellite cells for genetic analysis were cultured for 120 hours to provide enough cells. In the case of the muscle satellite cells to be cultured for 120 hours, the F-10 medium containing 20% bovine serum was replaced 72 hours after seeding. After the culturing for 72 hours or 120 hours, the muscle satellite cells were cultured in a differentiation-inducing medium for 24 hours. The differentiation-inducing medium was a medium in which a TGF β (TGF-β) signal inhibitor, quercetin, or solvent was added in an amount shown in Table 1 to Dulbecco's Modified Eagle Medium (DMEM) containing 2% fetal equine serum. TGF β (Sigma-Aldrich) was used for fibrosis induction. The compound was added to the differentiation-inducing medium using HCl as solvent to a final concentration of 1 ng/mL. TGF β was added when a TGF β signal inhibitor or quercetin was added. The TGF β signal inhibitor was SB525334 (6-[2-tert-butyl-5-(6-methyl-pyridin-2-yl)-1H-imidazol-4-yl]-quinoxaline available from Wako Pure Chemical Industries, Ltd.). […]

Acta2 gene = test: Fibrosis marker gene expression analysis (quantitative PCR), Acta2 gene; format: cell-based, rat; settings: TGF β 1 ng/mL, 24 hours, Dunnett's test vs. TGF β(+), FIG. 2(a)
Method: (§1) Gastrocnemius, soleus, plantaris muscle, tibialis anterior, extensor digitorum longus, and quadriceps were extracted from male Fischer 344 rats of 9 to 15 weeks old under anesthesia, and minced in phosphate buffered saline (PBS) (Life Technologies Corporation) on ice. The minced muscle tissue was enzymatically degraded by Protease (Sigma-Aldrich) at 37° C., and then centrifuged repeatedly, whereby the muscle satellite cells were isolated. The muscle satellite cells were suspended in Dulbecco's Modified Eagle Medium (DMEM) containing 10% fetal equine serum, and cultured for 24 hours. After culturing, centrifugation was performed again, and the deposited muscle satellite cells were seeded onto an 8-well slide glass (Thermo Fisher Scientific) to a density of 5×10^4 to 7×10^4 cells/mL in F-10 medium (Gibco) containing 20% bovine serum. After seeding, the muscle satellite cells were cultured for 72 hours or 120 hours. […] The cDNAs obtained by reverse transcription reaction was subjected to quantitative PCR in Step One Plus Real Time PCR System using TaqMan Fast Universal PCR Mastermix (Life Technologies Corporation). The expression levels of Colla1 gene and Acta2 gene as a myofibroblast marker were measured. For quantitative PCR, the cells were first maintained at 95° C. for 20 seconds, and then subjected to 40 cycles of reaction at 95° C. for 1 second and 60° C. for 20 seconds. […]

Colla1 gene = test: Fibrosis marker gene expression analysis (quantitative PCR), Colla1 gene; format: cell-based, rat; settings: TGF β 1 ng/mL, 24 hours, FIG. 2(b)
Method: as §1

Compound | TGF β-induced morphological changes of muscle satellite cells to myofibroblasts ([1]; SB525334 1 μM, 24 hours in differentiation-inducing medium, FIG. 1(c)) | expression of Acta2 gene (Acta2 gene; SB525334 1 μM) | expression of Colla1 gene (Colla1 gene; SB525334 1 μM, Dunnett's test vs. TGF β(+)) | morphological changes of muscle satellite cells to myofibroblast-like cells ([1]; quercetin 50 μM, 24 hours, vs. TGF β-added group, FIG. 1(d)) | morphological changes of muscle satellite cells to myofibroblasts ([1]; quercetin 100 μM, 24 hours, vs. 50-μM quercetin-added group, FIG. 1(e)) | expression of Acta2 gene (Acta2 gene; quercetin 100 μM) | expression of Colla1 gene (Colla1 gene; quercetin 50 μM and 100 μM)
Cc1cccc(-c2[nH]c(C(C)(C)C)nc2-c2ccc3nccnc3c2)n1 [SB525334, 6-[2-tert-butyl-5-(6-methyl-pyridin-2-yl)-1H-imidazol-4-yl]-quinoxaline, reference compound] | clearly inhibited | significantly inhibited | significantly inhibited | – | – | – | –
O=c1c(O)c(-c2ccc(O)c(O)c2)oc2cc(O)cc(O)c12 [quercetin] | – | – | – | more inhibited | stronger effect of inhibiting morphological changes | significantly inhibited | inhibited in a concentration-dependent manner
